Assay results: patent US11987581B1 (KING FAISAL UNIVERSITY, priority 2023, dated 2024)

Target: T1, recombinant human CK2 (RRββ-holoenzyme) (Homo sapiens, UniProt P68400)
T1 construct: purchased Millipore
Assay: CK2 Kinase Assay (radiometric, [γ-33P] ATP)
Format: biochemical
Conditions: final ATP concentration 15 μM; 10 min at 30° C.; eight concentrations; read-out: protein kinase CK2 activity IC50
Protocol: CK2 Kinase Assay was conducted using the protocol as described in Pierre F. et al; J. Med. Chem. 2011, 54, 635-654. The tested compounds in aqueous solution were added at a volume of 10 μL to a reaction mixture comprising 10 μL of assay dilution buffer (ADB; 20 mM MOPS, pH 7.2, 25 mM β-glycerol phosphate, 5 mM EGTA, 1 mM sodium orthovanadate, and 1 mM dithiothreitol), 10 μL of substrate peptide (RRRDDDSDDD, dissolved in ADB at a concentration of 1 mM), 10 μL of recombinant human CK2 (RRββ-holoenzyme, 25 ng dissolved in ADB; Millipore). Reactions were initiated by the addition of 10 μL of ATP solution (90% 75 mMMgCl2, 75 μM ATP (final ATP concentration: 15 μM) dissolved in ADB; 10% [γ-33P] ATP (stock 1 mCi/100 μL; 3000 Ci/mmol (Perkin-Elmer) and maintained for 10 min at 30° C. The reactions were quenched with 100 μL of 0.75% phosphoric acid and then transferred to and filtered through a phosphor cellulose filter plate (Millipore). After washing each well five times with 0.75% phosphoric acid, the plate was dried under vacuum for 5 min and, following the addition of 15 μL of scintillation fluid to each well, the residual radioactivity was measured using a Wallac luminescence counter. The IC50 values were derived from eight concentrations of test inhibitors.

T1 sequence (P68400 whole entry): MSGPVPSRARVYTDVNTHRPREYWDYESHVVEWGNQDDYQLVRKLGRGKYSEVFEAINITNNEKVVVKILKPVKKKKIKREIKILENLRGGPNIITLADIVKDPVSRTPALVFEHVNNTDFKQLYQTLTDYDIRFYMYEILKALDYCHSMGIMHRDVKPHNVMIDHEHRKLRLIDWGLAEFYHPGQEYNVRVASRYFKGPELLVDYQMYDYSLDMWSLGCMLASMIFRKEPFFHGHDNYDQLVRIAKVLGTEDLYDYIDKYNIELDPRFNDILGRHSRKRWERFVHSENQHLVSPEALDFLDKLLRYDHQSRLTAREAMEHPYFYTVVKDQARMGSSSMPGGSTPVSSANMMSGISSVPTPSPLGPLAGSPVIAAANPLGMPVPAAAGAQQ
T1 sequence (P67870 whole entry partner): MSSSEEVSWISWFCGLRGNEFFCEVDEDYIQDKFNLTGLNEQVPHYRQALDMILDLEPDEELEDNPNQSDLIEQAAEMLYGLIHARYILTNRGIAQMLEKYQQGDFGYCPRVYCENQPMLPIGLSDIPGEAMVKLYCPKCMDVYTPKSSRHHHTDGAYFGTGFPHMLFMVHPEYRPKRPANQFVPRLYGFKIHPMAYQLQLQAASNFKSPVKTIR

IC50: 41 nM
Structure (SMILES): O=C(O)c1cn2c(Nc3cccc(Cl)c3)nc3ccncc3c2n1 [Compound 1]
